pIC50: −log10 of the molar value.
Assays:
[1] = Plasma protein binding by equilibrium dialysis; assay type: in vitro ADME; settings: both sexes, pH 7.4, pooled human plasma, 4 hours at 37° C., read-out: PPB (%)
Experimental: (§1) The following procedure was used to determine the plasma protein binding of a test compound in pooled plasma from human (mixed gender) via equilibrium dialysis in a 96-well plate format. The dialysate compartment was loaded with phosphate-buffered saline (pH 7.4) and the sample side was loaded with plasma spiked with the test compound at a concentration of 10 μM. After loading, samples were covered and incubated for 4 hours at 37° C. After incubation, each compartment was sampled, diluted with acetonitrile/buffer and centrifuged. The supernatants were analyzed by HPLC-MS/MS. The analyte peak areas obtained from HPLC-MS/MS analysis of each sample were used to calculate protein binding according to the following equation (Equation 4):
(§2) [formula] where: AREAp=Peak area of analyte in protein matrix; AREAb=Peak area of analyte in buffer.
(§3) The amount measured in the plasma compartment included both free and bound drug, while that on the buffer side represented free drug only; the differences were used to calculate the percentage plasma protein bound. Three reference compounds were tested in each assay: acebutolol, quinidine and warfarin.

Thrombin = Thrombin (Homo sapiens (Human), UniProt P00734); experiment: Dose response assay for protease inhibitors: thrombin; assay type: biochemical; settings: selectivity, thrombin over Factor XIa
Outline: (§4)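 Glp-Pro-Arg-AMC substrate (thrombin, trypsin) or Pro-Phe-Arg-AMC/Boc-Leu-Gly-Arg-AMC (Factor Xa), diluted to 100 μM, in 20 mM Hepes pH 7.4, 150 mM NaCl, 0.02% Tween 20; enzyme diluted to 0.5 nM before addition. Two-fold serial compound dilutions; kinetic reads at 30° C. Data yield IC50 and Kon.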

Trypsin = experiment: Dose response assay for protease inhibitors: trypsin; assay type: biochemical; settings: selectivity, trypsin over Factor XIa
Outline: as §4

[2] = Caco-2 cell permeability assay; assay type: in vitro ADME, human; settings: human, 37° C.
Experimental: (§5) The following procedure was used to determine the ability of a test compound to cross Caco-2 cells (human intestinal epithelial cells derived from a colorectal adenocarcinoma). The cells were seeded at 1×10^5 cells/cm^2 in 96-well Multiscreen™ plates (Millipore). Permeability assays were performed with the cells at days 21-25 post-seeding. Cells are typically used for 15 consecutive passages in culture.
(§6) This assay can be performed in either the apical to basolateral (A-B) or basolateral to apical (B-A) direction. The test compound was prepared at 10 μM in HBSS-MES (pH 6.5) or HBSS-HEPES (pH 7.4) with a final DMSO concentration of 1%. The working solution was then centrifuged and the supernatant added to the donor side. The assay plate was incubated at 37° C. with gentle shaking for 60 min or 40 min for the A-B or B-A assay, respectively. Samples were aliquoted from the donor side at time zero and the end point, and from the receiver side at the end point.
(§7) Reference compounds, propranolol (highly permeable), labetalol (moderately permeable), ranitidine (poorly permeable), and colchicine (P-glycoprotein substrate) were included in each assay.
(§8) Samples are analyzed by HPLC-MS/MS using selected reaction monitoring. The HPLC system consists of a binary LC pump with autosampler, a C-18 column, and a gradient.
(§9) The apparent permeability coefficient (Papp) of the test compound (Equation 2) and its recovery (Equation 3) are calculated as follows:
(§10) [formula] wherein A is the surface area of the cell monolayer (0.11 cm^2), C is concentration of the test compound expressed as peak area, D denotes donor, and R is receiver. “0”, “mid,” and “end” denote time at zero, mid-point, and end of the incubation, respectively. Δt is the incubation time. V is the volume of the donor or receiver.
(§11) This is most likely due to non-specific binding or degradation.

Factor XIa = Factor XIa (Homo sapiens (Human), UniProt P03951); experiment: Factor XIa enzyme inhibition assay (dose response, fluorogenic AMC substrate); assay type: biochemical; settings: read-out: hFXIa IC50
Outline: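 Fluorogenic progress curves (30 min, 1-min reads, 30° C) were recorded for 0.25 nM FXIa cleaving 50 μM Glp-Pro-Arg-AMC in Hepes pH 7.4 buffer with NaCl and Tween 20. Compounds were serially two-fold diluted, and IC50 was fitted with a Hill equation.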

Factor Xa = Factor Xa (Homo sapiens (Human), UniProt P00742); experiment: Dose response assay for protease inhibitors: Factor Xa; assay type: biochemical; settings: selectivity, Factor Xa over Factor XIa
Outline: as §4

[3] = Aqueous solubility in PBS by HPLC-UV/VIS; assay type: physicochemical; settings: PBS pH 7.4, 2% DMSO, 24 h at room temperature
Experimental: The following procedure was used to determine the aqueous solubility of a test compound in phosphate buffered saline (PBS-NaCl 137 mM, KCl 2.7 mM, Na2HPO4 8.1 mM, KH2PO4 1.5 mM, pH 7.4) in 96-well plate format by HPLC-UV/VIS analysis. The test compound was prepared at 200 μM in PBS from a 10 mM DMSO stock solution. The final DMSO concentration was 2%. The PBS buffer samples were mixed thoroughly followed by incubation at room temperature for 24 h. At the end of the incubation, the PBS buffer samples were centrifuged and supernatants analyzed by HPLC. The aqueous solubility (μM) of the test compound in PBS was determined by comparing the peak area of the principal peak in the calibration standard (200 μM) with the peak area of the corresponding peak in each of the PBS samples. The range of the assay was approximately 0.5 μM to 200 μM. The reference compounds used in each assay were metoprolol, rifampicin, ketoconazole, phenytoin, haloperidol, simvastatin, diethylstilbestrol, and tamoxifen ranking from fully soluble (200 μM) to poorly soluble (<1 μM).

human plasma protein = experiment: Plasma protein binding by equilibrium dialysis; assay type: in vitro ADME; settings: pooled human plasma, 10 μM, 4 hours at 37° C.
Experimental: as §1, §2, §3

Caco-2 cells = experiment: Caco-2 cell permeability assay; assay type: in vitro ADME, human; settings: Papp, 10 μM, 37° C.
Experimental: as §5, §6, §7, §8, §9, §10, §11

Factor XIa, sequence (P03951 388-625): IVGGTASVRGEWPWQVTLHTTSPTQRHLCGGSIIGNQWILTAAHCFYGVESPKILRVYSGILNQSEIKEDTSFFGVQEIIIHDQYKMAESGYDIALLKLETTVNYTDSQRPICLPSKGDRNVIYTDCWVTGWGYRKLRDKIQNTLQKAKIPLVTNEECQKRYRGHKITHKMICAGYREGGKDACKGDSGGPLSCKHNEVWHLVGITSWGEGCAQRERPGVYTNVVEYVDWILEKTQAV
Factor XIa, sequence (P03951 19-387 partner): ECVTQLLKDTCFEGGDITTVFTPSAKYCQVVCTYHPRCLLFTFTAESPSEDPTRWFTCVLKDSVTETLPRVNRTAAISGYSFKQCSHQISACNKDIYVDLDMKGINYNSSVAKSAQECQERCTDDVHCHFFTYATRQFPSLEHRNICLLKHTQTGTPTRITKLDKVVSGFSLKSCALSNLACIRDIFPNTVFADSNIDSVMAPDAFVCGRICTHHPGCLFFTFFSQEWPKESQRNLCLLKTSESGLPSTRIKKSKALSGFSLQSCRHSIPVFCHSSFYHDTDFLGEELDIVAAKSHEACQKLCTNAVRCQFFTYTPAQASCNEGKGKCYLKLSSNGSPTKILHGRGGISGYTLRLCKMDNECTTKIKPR
Factor Xa, sequence (P00742 235-488): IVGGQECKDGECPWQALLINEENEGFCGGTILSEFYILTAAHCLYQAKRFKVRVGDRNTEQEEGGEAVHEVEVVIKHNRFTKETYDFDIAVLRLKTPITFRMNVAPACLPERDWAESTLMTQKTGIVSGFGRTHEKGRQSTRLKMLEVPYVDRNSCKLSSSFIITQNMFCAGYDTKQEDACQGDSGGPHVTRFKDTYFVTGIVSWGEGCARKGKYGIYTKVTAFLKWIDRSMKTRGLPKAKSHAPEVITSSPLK
Factor Xa, sequence (P00742 41-179 partner): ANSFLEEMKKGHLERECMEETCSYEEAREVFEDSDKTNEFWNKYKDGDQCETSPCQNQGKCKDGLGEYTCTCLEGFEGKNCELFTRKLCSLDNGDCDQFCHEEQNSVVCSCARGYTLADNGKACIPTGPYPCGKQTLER

fraction unbound at 4 h, 10 μM [1]	Ratio: Thrombin/FXIa (Thrombin)	Papp A→B at 60 min, 10 μM ([2]; Caco-2, apical to basolateral, 60 min)	Papp B→A at 40 min, 10 μM ([2]; Caco-2, basolateral to apical, 40 min)	pIC50 (Factor XIa)	Ratio: FXa/FXIa (Factor Xa)	solubility at 24 h ([3]; phosphate buffered saline, aqueous buffer, kinetic from dmso stock)	PPB (%) (human plasma protein)	Caco-2 Permeability (A-B) (Caco-2 cells; apical to basolateral, 60 min)	Caco-2 Permeability (B-A) (Caco-2 cells; basolateral to apical, 40 min)	Aqueous Solubility (uM, in PBS) [3]	Compound	Ratio: Trypsin/FXIa (Trypsin)
0.1 to 0.5	H (“H” indicates 101-1000)	< 10 ×10⁻⁶ cm/s	11 to 30 ×10⁻⁶ cm/s	> 8.00	I (“I” indicates > 500)	> 100 µM					CC[C@@H](NC(=O)N1C(=O)[C@H](Cc2ccnc(N)c2)[C@H]1C(=O)N(C)c1nccn1C)c1cc(F)ccc1F [Compound 1-84, (2S,3R)-3-((2-aminopyridin-4-yl)methyl)-N2-(1-methyl-1H-imidazol-2-yl)-N1-((R)-1-(2,5-difluorophenyl)propyl)-N2-methyl-4-oxoazetidine-1,2-dicarboxamide]	G (“G” indicates 1-100)
	H (“H” indicates 101-1000)			> 8.00	I (“I” indicates > 500)		Z (“Z” indicates 50-90%)	P (“P” indicates < 10 × 10^−6 cm/s)	Q (“Q” indicates 11-30 × 10^−6 cm/s)	W (“W” indicates > 100 μM)	(2S,3R)-3-((2-aminopyridin-4-yl)methyl)-N2-(1-methyl-1H-imidazol-2-yl)-N1-((R)-1-(3-fluorophenyl)propyl)-N2-methyl-4-oxoazetidine-1,2-dicarboxamide [Compound 1-79]	G (“G” indicates 1-100)
